Data: article PMC4726260, “Combined ligand-observe ^19F and protein-observe ^15N,^1H-HSQC NMR suggests phenylalanine as the key Δ-somatostatin residue recognized by human protein disulfide isomerase” (Scientific Reports, 2016)
Non-standard residues stand in square brackets, D forms with d. Residues, ends and D or L forms follow the SMILES beside them. No end group written: not given here. Phe(4-F) = N[C@@H](Cc1ccc(F)cc1)C(=O)O

T1: hPDI b’x (Homo sapiens, UniProt P07237)
T1 construct: There is also a short 19 amino acid x-linker region between the b’ and a’ domains; made in house; host or cells: E. coli
T1 sequence (P07237 230-368 limits assumed): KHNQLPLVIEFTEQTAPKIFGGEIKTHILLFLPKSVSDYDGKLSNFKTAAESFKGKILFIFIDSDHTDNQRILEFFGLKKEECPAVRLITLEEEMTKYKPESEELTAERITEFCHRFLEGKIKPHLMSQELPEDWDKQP


Tests used:
hPDI b’x [1] = target: T1, hPDI b’x; experiment: Protein-observe 15N,1H-HSQC NMR titration (chemical shift perturbation, Kd); assay type: binding; conditions: for Kd: read-out: Dissociation constant (Kd), PROTEIN 15N/1H Tracked; for Binding classification from 15N,1H-HSQC titration series: 310 K, pH 7.0, resonance shifts throughout the titration
Protocol: (§1) NMR titrations were carried out by collecting ^19F NMR spectra (at a constant peptide concentration of 0.15 mM) and ^15N,^1H-HSQC spectra (at a constant protein concentration of 0.25 mM). This provided binding perspectives from both peptide and protein. ^19F NMR data provided precise curve fits of equation (1) with Kd values in agreement with those obtained by ^15N NMR (Table 1). […] Triple fluorinated peptide spectra are shown in Fig. 4 with example Kd graphs plotted using chemical shift change against b’x concentration (see Supplementary Information SV for single fluorinated peptide ^19F spectra).
(§2) All spectra were collected using a 4-channel, 5-amplifier Bruker Avance III 14.1 T (600 MHz ^1H) NMR spectrometer equipped with a 5 mm QCI-F cryoprobe. ^15N,^1H-HSQC spectra were acquired over 45 min on samples containing 0.25 mM b’x and varying peptide concentrations. Each ^19F 1D spectrum was acquired over 60 min on samples of 0.15 mM Δ-som with varying protein concentration. Ratios of the variable:static components in each experiment were 1:4, 1:2, 1:1, 1.5:1, 2:1 and 2.5:1. All samples were run at 310 K in 20 mM sodium phosphate buffer (pH 7.0) containing 50 mM NaCl, 5% D6-DMSO, 5% ^2H2O and 0.05% sodium azide. 1D NMR data were processed using Bruker Topspin software and referenced using the position of trifluoroacetic acid (−76.55 ppm). 2D data were processed using NMRPipe[31] and analysed using the CCPN Analysis software package.
Amide chemical shifts were calculated in Hz as √[(0.6Δ^1H)^2 + (Δ^15N)^2]. Dissociation constants (Kd) for each shifting peak were calculated by plotting the chemical shift perturbation (Hz) against ligand concentration (mM) and fitting the curve to the equation: […]
(§3) where Δobs is the observed chemical shift perturbation, Δmax the maximum chemical shift perturbation and [P] and [L] the protein and ligand concentrations respectively. This equation was used to fit both ^15N and ^19F NMR data using KaleidaGraph 4.0 (Synergy Software). Standard errors from the Levenberg-Marquardt fitting routine were taken as the uncertainties. We determined Kd from ^15N,^1H HSQC NMR data using two approaches: First, by simultaneous fitting all shifts which are averaged to create a single plot, which is considered an accurate method of Kd determination. Second, we tracked and fitted each peak individually to the equation above and averaged all results and errors across all fits. […] This hPDI system creates Kd values with shallow binding curve where errors where average chemical shifts reduce fitting accuracy and individual fitting produces higher resoltuion. Therefore, we used Kd values from the averaged individual fit method within this paper to report smaller errors.

hPDI b’x [2] = target: T1, hPDI b’x; experiment: Ligand-observe 19F NMR titration (chemical shift change vs b’x concentration, Kd); assay type: binding; conditions: 310 K
Protocol: as §1, §2, §3

[3] = target: Δ-somatostatin (Homo sapiens) (UniProt P61278); experiment: 19F NMR; conditions: cited from earlier work
[4] = target: human protein disulphide isomerase (hPDI) b'x fragment (human) (UniProt P07237); experiment: SEC; gel filtration elution profile of 15N labelled b'x (step of the purification); absorbance at 280 nm
[5] = target: human protein disulphide isomerase (hPDI) fragment b'x (human); experiment: NMR titration; protein-observed 15N,1H-HSQC; 0.25 mM 15N b'x constant, peptide titrated (ratios 1:4 to 2.5:1); 310 K; 20 mM sodium phosphate pH 7.0, 50 mM NaCl, 5% D6-DMSO, 5% 2H2O, 0.05% sodium azide; Kd is the average of the fits of the individual shifting peaks
[6] = 15N,1H-HSQC, constant 0.25 mM 15N b’x, varying peptide (ratios 1:4 to 2.5:1), 310 K (37 °C), 20 mM sodium phosphate pH 7.0, 50 mM NaCl, 5% D6-DMSO, average of individual residue fits, ± standard error of Levenberg-Marquardt fit
[7] = 19F 1D NMR, constant 0.15 mM singly fluorinated peptide, varying b’x, 20 mM sodium phosphate pH 7.0, 50 mM NaCl, 5% D6-DMSO, ± standard error of fit, read-out: Dissociation constant (Kd), LIGAND 19F Tracked (Single-F)

Kd (hPDI b’x [1]; [6]) [µM]	Kd [5] [µM]	Molecule	also measured
61 ± 47		C[C@H](N)C(=O)NCC(=O)N[C@@H](CO)C(=O)N[C@@H](CCCCN)C(=O)N[C@@H](CC(N)=O)C(=O)N[C@@H](Cc1ccc(F)cc1)C(=O)N[C@@H](Cc1ccccc1)C(=O)N[C@@H](Cc1c[nH]c2ccccc12)C(=O)N[C@@H](CCCCN)C(=O)N[C@H](C(=O)N[C@@H](Cc1ccccc1)C(=O)N[C@H](C(=O)N[C@@H](CO)C(=O)N[C@@H](CO)C(=O)O)[C@@H](C)O)[C@@H](C)O [F1 Δ-som] (H-AGSKN[Phe(4-F)]FWKTFTSS-OH)	Kd (hPDI b’x [2]; [7]): 109 ± 13 µM
48 ± 35		C[C@H](N)C(=O)NCC(=O)N[C@@H](CO)C(=O)N[C@@H](CCCCN)C(=O)N[C@@H](CC(N)=O)C(=O)N[C@@H](Cc1ccc(F)cc1)C(=O)N[C@@H](Cc1ccc(F)cc1)C(=O)N[C@@H](Cc1c[nH]c2ccccc12)C(=O)N[C@@H](CCCCN)C(=O)N[C@H](C(=O)N[C@@H](Cc1ccc(F)cc1)C(=O)N[C@H](C(=O)N[C@@H](CO)C(=O)N[C@@H](CO)C(=O)O)[C@@H](C)O)[C@@H](C)O [F1,2,3 Δ-som] (H-AGSKN[Phe(4-F)][Phe(4-F)]WKT[Phe(4-F)]TSS-OH)	Kd (hPDI b’x [2]; 19F 1D NMR, F1 (Phe6) resonance of triple fluorinated peptide, 0.15 mM peptide, varying b’x, pH 7.0, ± standard error of fit, read-out: Dissociation constant (Kd), LIGAND 19F Tracked (Triple-F), F1 peak): 108 ± 15 µM; Kd (hPDI b’x [2]; 19F 1D NMR, F2 (Phe7) resonance of triple fluorinated peptide, 0.15 mM peptide, varying b’x, pH 7.0, ± standard error of fit, read-out: Dissociation constant (Kd), LIGAND 19F Tracked (Triple-F), F2 peak): 33 ± 11 µM; Kd (hPDI b’x [2]; 19F 1D NMR, F3 (Phe11) resonance of triple fluorinated peptide, 0.15 mM peptide, varying b’x, pH 7.0, ± standard error of fit, read-out: Dissociation constant (Kd), LIGAND 19F Tracked (Triple-F), F3 peak): 45 ± 14 µM; Kd (hPDI b’x [2]; mean of the Kd from each monitored 19F resonance in the triple fluorinated peptide, 0.15 mM peptide, pH 7.0, read-out: Dissociation constant (Kd), LIGAND 19F Tracked (Triple-F), mean Kd): 62 ± 13 µM
51 ± 30		C[C@H](N)C(=O)NCC(=O)N[C@@H](CO)C(=O)N[C@@H](CCCCN)C(=O)N[C@@H](CC(N)=O)C(=O)N[C@@H](Cc1ccccc1)C(=O)N[C@@H](Cc1ccc(F)cc1)C(=O)N[C@@H](Cc1c[nH]c2ccccc12)C(=O)N[C@@H](CCCCN)C(=O)N[C@H](C(=O)N[C@@H](Cc1ccccc1)C(=O)N[C@H](C(=O)N[C@@H](CO)C(=O)N[C@@H](CO)C(=O)O)[C@@H](C)O)[C@@H](C)O [F2 Δ-som] (H-AGSKNF[Phe(4-F)]WKTFTSS-OH)	Kd (hPDI b’x [2]; [7]): 27 ± 3 µM
84 ± 53		C[C@H](N)C(=O)NCC(=O)N[C@@H](CO)C(=O)N[C@@H](CCCCN)C(=O)N[C@@H](CC(N)=O)C(=O)N[C@@H](Cc1ccccc1)C(=O)N[C@@H](Cc1ccccc1)C(=O)N[C@@H](Cc1c[nH]c2ccccc12)C(=O)N[C@@H](CCCCN)C(=O)N[C@H](C(=O)N[C@@H](Cc1ccc(F)cc1)C(=O)N[C@H](C(=O)N[C@@H](CO)C(=O)N[C@@H](CO)C(=O)O)[C@@H](C)O)[C@@H](C)O [F3 Δ-som] (H-AGSKNFFWKT[Phe(4-F)]TSS-OH)	Kd (hPDI b’x [2]; [7]): 97 ± 21 µM
		AGSKNAAWKTATSS [Phe6,7,11 → Ala Δ-som, triple Phe → Ala peptide of Δ-som]	Binding classification from 15N,1H-HSQC titration series (hPDI b’x [1]; 0.25 mM 15N b’x): non-binding; Chemical shifts identified at the end point of the titration (hPDI b’x [1]; 15N,1H-HSQC, 0.25 mM 15N b’x, shifts did not map to the ligand binding site): < 0.01 ppm; Dissociation constant (Kd), PROTEIN 15N/1H Tracked (hPDI b’x [1]; [6]): Non binding
242 ± 177		AGSKNAAWKTFTSS [Phe6,7 → Ala Δ-som]	
587 ± 174		AGSKNAFWKTATSS [Phe6,11 → Ala Δ-som]	
199 ± 100		AGSKNAFWKTFTSS [Phe6 → Ala Δ-som]	
412 ± 219		AGSKNFAWKTATSS [Phe7,11 → Ala Δ-som]	
123 ± 96		AGSKNFAWKTFTSS [Phe7 → Ala Δ-som]	
261 ± 101		AGSKNFFWKTATSS [Phe11 → Ala Δ-som]	
103 ± 47		AGSKNFFWKTFTSS [Δ-som, Δ-somatostatin]	
		PDI b'x (from UniProt P07237)	Kd [3]: 23 µM
		RERQIKKQTALVELV [helix-28 from human serum albumin, helix-28 from human serum albumin (…), reference compound]	Binding classification from 15N,1H-HSQC titration series (hPDI b’x [1]; 0.25 mM 15N b’x): non-binding
		human protein disulphide isomerase (hPDI) b'x fragment (from UniProt P07237 18-508) (domain or fragment)	stoichiometry N [4]: 2
	48	AGSKN[Phe(4-F)][Phe(4-F)]WKT[Phe(4-F)]TSS [F1,2,3 Δ-som]	
	242	AGSKNAAWKTFTSS [Phe6,7 → Ala Δ-som]	
	587	AGSKNAFWKTATSS [Phe6,11 → Ala Δ-som]	
	261	AGSKNFFWKTATSS [Phe11 → Ala Δ-som]	
	51	AGSKNF[Phe(4-F)]WKTFTSS [F2 Δ-som]	
	199	AGSKNAFWKTFTSS [Phe6 → Ala Δ-som]	
	61	AGSKN[Phe(4-F)]FWKTFTSS [F1 Δ-som]	
	123	AGSKNFAWKTFTSS [Phe7 → Ala Δ-som]	
	84	AGSKNFFWKT[Phe(4-F)]TSS [F3 Δ-som]	
	412	AGSKNFAWKTATSS [Phe7,11 → Ala Δ-som]	
	103	AGSKNFFWKTFTSS [Δ-somatostatin]	
